{"source": "paper PMC9915956", "about": "“Identification of Potent Zika Virus NS5 RNA-Dependent RNA Polymerase Inhibitors Combining Virtual Screening and Biological Assays” (International Journal of Molecular Sciences, 2023)", "key": {"ZIKV NS5 RdRp [1]": {"target": "T1, ZIKV NS5 RdRp (Zika virus, UniProt A0A024B7W1)", "T1 sequence (A0A024B7W1 2786-3423)": "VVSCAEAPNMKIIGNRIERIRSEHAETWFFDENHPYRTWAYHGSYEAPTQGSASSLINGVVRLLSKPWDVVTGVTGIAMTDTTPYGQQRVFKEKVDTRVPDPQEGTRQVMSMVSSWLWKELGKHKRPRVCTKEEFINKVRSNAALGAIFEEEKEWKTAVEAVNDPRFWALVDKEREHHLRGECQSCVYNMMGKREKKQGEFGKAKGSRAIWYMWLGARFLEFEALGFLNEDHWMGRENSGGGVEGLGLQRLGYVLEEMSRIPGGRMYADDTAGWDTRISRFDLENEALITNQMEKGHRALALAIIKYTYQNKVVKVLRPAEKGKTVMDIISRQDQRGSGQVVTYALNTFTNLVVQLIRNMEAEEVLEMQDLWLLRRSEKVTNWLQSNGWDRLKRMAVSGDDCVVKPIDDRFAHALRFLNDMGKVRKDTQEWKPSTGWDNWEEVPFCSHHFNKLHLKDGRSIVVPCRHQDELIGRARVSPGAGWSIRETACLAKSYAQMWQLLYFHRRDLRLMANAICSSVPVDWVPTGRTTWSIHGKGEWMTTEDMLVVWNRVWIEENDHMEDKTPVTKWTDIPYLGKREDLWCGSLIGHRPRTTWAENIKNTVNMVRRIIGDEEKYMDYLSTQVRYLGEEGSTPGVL", "test": "Fluorescence-based alkaline phosphatase-coupled polymerase assay, RdRp enzymatic inhibition", "type": "biochemical", "conditions": "compounds incubated with RdRp for 30 min; WT-RdRp; read-out: IC50 to inhibit RdRp activity", "method": "The activity of RdRp was measured by a fluorescence-based alkaline phosphatase-coupled polymerase assay established previously in our lab. Briefly, RdRp catalyzed the transfer of adenosine 5′-monophosphate from γ-(BBT)-ATP to the RNA chain, generating the byproduct BBTppi. Subsequently, BBTppi was hydrolyzed by alkaline phosphatase to fluorescent BBT (ex/em 430/560 nm).\nThe plasmid pET30a-RdRp, constructed in our laboratory, was transformed into E. coli Transetta (DE3) for RdRp expression and purified. The bacteria were grown in ZYM-5052 culture medium. RdRp with the His tag was loaded on a Ni^2+ HisTrap chelating column and then eluted in a buffer containing imidazole in the ÄKTA system. The purified proteins were verified by SDS-PAGE and Western blotting. RdRp activity was analyzed using a fluorescence-based alkaline phosphatase-coupled polymerase assay. The inhibitory effect of the compounds against RdRp was evaluated using the protocol developed in our laboratory."}, "Huh-7 cells [2]": {"system": "Huh-7 cells", "test": "WST-8 cell viability (cytotoxicity) assay", "conditions": "Huh-7 cells", "method": "(§1) The WST-8 assay was used to evaluate the cytotoxicity of the compounds. Huh-7 cells (1 × 10^4 cells/well) were seeded in a 96-well plate and different concentrations of compounds were added the next day. After a 24 h incubation, the supernatant was discarded and WST-8 reagent (1:10 diluted by DMEM) was added. The cell viability was assessed using a Microplate Reader (ELx808, Biotek, North Chesterfield, VA, USA) at 450 nm."}, "in vitro": {"test": "in vitro", "conditions": "human", "method": "as §1"}, "ZIKV NS5 RdRp [3]": {"target": "T1, ZIKV NS5 RdRp", "test": "SPR binding to immobilized RdRp", "conditions": "CM5 chip, 3.125–50 μM", "quoted_text": "Thus, SPR assays were carried out. RdRp protein was immobilized on a CM5 sensor chip through amine coupling.\nThe SPR was carried out using BIAcore T200 (GE Healthcare, Uppsala, Sweden) at 25 °C. RdRp was diluted by 10 mM sodium acetate (pH 4.5) and then immobilized on a CM5 sensor chip using an NHS/EDC amine-coupling kit in 1× PBS-P running buffer. Different concentrations (3.125–50 μM) of compounds flowed through the sensor chip surface and the RUs was detected. The equilibrium dissociation constant (KD) was fitted using the BIAcore Evaluation Software."}, "ZIKV (SMGC-1)": {"system": "ZIKV (SMGC-1)", "test": "Anti-ZIKV activity by FACS of ZIKV E protein-positive cells", "type": "cell-based", "conditions": "Zika virus, read-out: EC50 anti-ZIKV activity (reduction of ZIKV E protein-positive cells)", "method": "Huh-7 cells were infected with ZIKV (SMGC-1) and incubated with different concentrations of compounds. After 48 h, the cells were fixed and permeabilized, followed by staining with the FITC-anti-ZIKV E protein antibody. When detected by FACS, the FITC intensity in the given cell population reflected the ZIKV E protein-positive cells, indicting the cells infected with ZIKV.\nHuh-7 cells were seeded into 24-well plates and infected with ZIKV (SMGC-1) at a multiplicity of infection (MOI) of 0.2. […] Chloroquine was used as a positive control. Cells were fixed and permeabilized for 20 min using a Fixation/Permeabilization Solution Kit. After washing, the cells were incubated with FITC-anti-ZIKV E protein antibody for 30 min. Then, ZIKV E protein-positive cells were detected in a FACS Analyzer and analyzed by FlowJo (TreeStar, Ashland, OR, USA). The EC50s of the compounds were calculated as the reduction ratio of ZIKV E protein-positive cells over the concentrations of the compounds."}, "dengue virus": {"system": "dengue virus", "conditions": "by targeting OSBP; read-out: EC50 dengue virus replication; cited from earlier work"}, "[4]": {"system": "ZIKV sub-genomic replicon RNA", "conditions": "Hela cells, single concentration of 10 μM; cited from earlier work"}, "Huh-7 cells [5]": {"system": "Huh-7 cells", "set-up": "method as in PMID 19760134", "conditions": "≤ 10 μM; cited from earlier work"}}, "note": "Where two headings read alike, the source gives them in different places."}
{"smiles": "CCCCCCOC(=O)NC(=N)c1ccc(NCc2nc3cc(C(=O)N(CCC(=O)OCC)c4ccccn4)ccc3n2C)cc1", "note": "[DAB, Dabigatran etexilate]", "values": [{"measurement": "IC50", "setting": "ZIKV NS5 RdRp [1]", "value": 11.3, "unit": "µM"}]}
{"smiles": "Cc1cc2c(C(C)C)c(O)c(O)c(C=O)c2c(O)c1-c1c(C)cc2c(C(C)C)c(O)c(O)c(C=O)c2c1O", "note": "[GOS, Gossypol (acetic acid)]", "values": [{"measurement": "Cytotoxicity (in words) at 5 μM", "setting": "Huh-7 cells [2]; WST-8, concentration of 5 μM", "value": "obvious cell toxicity"}, {"measurement": "CC50 at 24 h", "setting": "in vitro", "value": 7.79, "unit": "µM"}]}
{"smiles": "CCC(C)n1ncn(-c2ccc(N3CCN(c4ccc(OCC5COC(Cn6cncn6)(c6ccc(Cl)cc6Cl)O5)cc4)CC3)cc2)c1=O", "note": "(stereo not shown) [ITR, Itraconazole]", "values": [{"measurement": "IC50", "setting": "ZIKV NS5 RdRp [1]", "value": 1.82, "unit": "µM"}, {"measurement": "Binding to RdRp by SPR (in words)", "setting": "ZIKV NS5 RdRp [3]", "value": "almost no binding signals"}, {"measurement": "CC50 at 24 h", "setting": "in vitro", "value": "> 100", "unit": "µM"}]}
{"smiles": "CC[C@@H]([C@H](C)O)n1ncn(-c2ccc(N3CCN(c4ccc(OC[C@@H]5CO[C@@](Cn6cncn6)(c6ccc(F)cc6F)C5)cc4)CC3)cc2)c1=O", "note": "[POS, Posaconazole]", "values": [{"measurement": "EC50", "setting": "ZIKV (SMGC-1); Huh-7 cells, ZIKV (SMGC-1) MOI 0.2, 48 h, FACS", "value": 0.59, "unit": "µM"}, {"measurement": "Cytotoxicity (in words) at concentrations used in the anti-ZIKV assay", "setting": "Huh-7 cells [2]; WST-8, 24 h, ≤ 6.4 μM", "value": "low"}, {"measurement": "CC50 at 24 h", "setting": "in vitro; Huh-7 cells", "value": 101, "unit": "µM"}, {"measurement": "EC50", "setting": "dengue virus", "value": 4.1, "unit": "µM"}, {"measurement": "Effect on replication of ZIKV sub-genomic replicon RNA (in words)", "setting": "[4]", "value": "inhibit the replication"}]}
{"smiles": "CCN(CC)CCCC(C)Nc1ccnc2cc(Cl)ccc12", "note": "(stereo not shown) [chloroquine, Chloroquine]", "values": [{"measurement": "EC50", "setting": "ZIKV (SMGC-1); Huh-7, 48 h", "value": 2.8, "unit": "µM"}, {"measurement": "Cytotoxicity to Huh-7 cells (in words)", "setting": "Huh-7 cells [5]", "value": "no significant cytotoxicity"}]}
